Assay results published in patent publication US5478929A, “Bioconversion products of 27-hydroxy avermectin” (Merck & Co., Inc., priority 1994, dated 1995).

Assays:
Type in all cases: in vivo
[1] = test system: Trichostrongylus colubriformis; test: Anthelmintic activity against Trichostrongylus colubriformis; conditions: Table 4
Haemonchus contortus = test: Anthelmintic activity against Haemonchus contortus; conditions: for Activity profile, Haemonchus Contortus: Table 4
[2] = test system: Trichostrongylus sigmodontis; test: Anthelmintic activity against Trichostrongylus sigmodontis (large bowel worm); conditions: for Activity profile, Trichostrongulus sigmodontis: Table 4; for Anthelmintic activity, Trichostrongylus sigmodontis: Table 2; for Anthelmintic activity, Trichostrongylus sigmodontis: key: A*: highly active; M: moderately active; I: inactive
Excerpt: The anthelmintic activity of the instant compound may be determined by orally administering via the feed, a sample of the individual compound, a mixture of such compound, a concentrated extract, and the like to a mouse which had been infected 3 days earlier with a gastrointestinal parasite. At 11, 12 and 13 days after the initiation of the medication, the feces of the mouse are examined for eggs, and on the next day the mouse is sacrificed and the number of worms present in the proximal portion of the small intestine are determined. An active compound is observed when there is a significant reduction of egg and worm counts when compared to infected, unmedicated controls.

Lucilla larva = test: Insecticidal activity, Lucilla larva; conditions: for Insecticidal activity, Lucilla larva 48 hrs: listed as 27-OH ivermectins Isomer B; for all read-outs here: key: A*: highly active; M: moderately active; I: inactive

CC1=C[C@H]2C(=O)O[C@H]3C[C@@H](C/C=C(\C)[C@@H](O)[C@@H](C)/C=C/C=C4\CO[C@H]([C@@H]1O)[C@@]42O)O[C@@]1(CC[C@H](C)[C@@H]([C@@H](C)C(C)O)O1)C3 (single isomer, unassigned) [27-OH-22,23 dihydro B1a aglycone isomer B, 27-hydroxy ivermectin aglycone]
I: Activity profile, Trichostrongulus colubriformis ([1]; 1.00 mg/kg) | Activity profile, Haemonchus Contortus (Haemonchus contortus; 1.00 mg/kg) | Activity profile, Trichostrongulus sigmodontis ([2]; 1.00 mg/kg)

CC[C@H](C)[C@H]1O[C@]2(C=C[C@@H]1C)C[C@@H]1C[C@@H](C/C=C(\C)[C@@H](O[C@H]3C[C@H](OC)[C@@H](O[C@H]4C[C@H](OC)[C@@H](O)[C@H](C)O4)[C@H](C)O3)[C@@H](C)/C=C/C=C3\CO[C@@H]4[C@H](O)C(C)=C[C@@H](C(=O)O1)[C@]34O)O2 [B1a, avermectin B1a, reference compound]
A (85-100% effective): Activity profile, Trichostrongulus colubriformis ([1]; 0.0625 mg/kg) | Activity profile, Trichostrongulus colubriformis ([1]; 0.125 mg/kg) | Activity profile, Trichostrongulus colubriformis ([1]; 0.25 mg/kg) | Activity profile, Haemonchus Contortus (Haemonchus contortus; 0.0625 mg/kg) | Activity profile, Haemonchus Contortus (Haemonchus contortus; 0.125 mg/kg) | Activity profile, Haemonchus Contortus (Haemonchus contortus; 0.25 mg/kg) | Activity profile, Trichostrongulus sigmodontis ([2]; 0.125 mg/kg) | Activity profile, Trichostrongulus sigmodontis ([2]; 0.25 mg/kg)
SLA (35-60% effective): Activity profile, Trichostrongulus sigmodontis ([2]; 0.0625 mg/kg)

CC1=C[C@H]2C(=O)O[C@H]3C[C@@H](C/C=C(\C)[C@@H](O)[C@@H](C)/C=C/C=C4\CO[C@H]([C@@H]1O)[C@@]42O)O[C@@]1(CC[C@H](C)[C@@H]([C@@H](C)C(C)O)O1)C3 (single isomer, unassigned) [27-OH-22,23 dihydro B1a aglycone isomer A, 27-hydroxy ivermectin aglycone]
I: Activity profile, Trichostrongulus colubriformis ([1]; 1.00 mg/kg) | Activity profile, Haemonchus Contortus (Haemonchus contortus; 1.00 mg/kg) | Activity profile, Trichostrongulus sigmodontis ([2]; 1.00 mg/kg)

4"-O-glucosyl, 27-OH-22,23 dihydro B 1 a isomer B [4"-O-glucosyl, 27-OH-22,23 dihydro B1a isomer B]
A (85-100% effective): Activity profile, Trichostrongulus colubriformis ([1]; 0.25 mg/kg) | Activity profile, Haemonchus Contortus (Haemonchus contortus; 0.25 mg/kg) | Activity profile, Trichostrongulus sigmodontis ([2]; 0.0625 mg/kg) | Activity profile, Trichostrongulus sigmodontis ([2]; 0.125 mg/kg) | Activity profile, Trichostrongulus sigmodontis ([2]; 0.25 mg/kg)
MA (60-85% effective): Activity profile, Trichostrongulus colubriformis ([1]; 0.125 mg/kg) | Activity profile, Haemonchus Contortus (Haemonchus contortus; 0.125 mg/kg)
I: Activity profile, Haemonchus Contortus (Haemonchus contortus; 0.0625 mg/kg)
SLA (35-60% effective): Activity profile, Trichostrongulus colubriformis ([1]; 0.0625 mg/kg)

4"-O-glucosyl, 27-OH -22,23 dihydro B1a isomer A [4"-O-glucosyl, 27-OH-22,23 dihydro B1a isomer A]
SLA (35-60% effective): Activity profile, Trichostrongulus colubriformis ([1]; 0.0625 mg/kg)
A (85-100% effective): Activity profile, Trichostrongulus colubriformis ([1]; 0.125 mg/kg) | Activity profile, Trichostrongulus colubriformis ([1]; 0.25 mg/kg) | Activity profile, Haemonchus Contortus (Haemonchus contortus; 0.125 mg/kg) | Activity profile, Haemonchus Contortus (Haemonchus contortus; 0.25 mg/kg) | Activity profile, Trichostrongulus sigmodontis ([2]; 0.0625 mg/kg) | Activity profile, Trichostrongulus sigmodontis ([2]; 0.125 mg/kg) | Activity profile, Trichostrongulus sigmodontis ([2]; 0.25 mg/kg)
MA (60-85% effective): Activity profile, Haemonchus Contortus (Haemonchus contortus; 0.0625 mg/kg)

CO[C@H]1C[C@H](O[C@H]2[C@H](C)O[C@@H](O[C@@H]3/C(C)=C/C[C@@H]4C[C@@H](C[C@]5(CC[C@H](C)[C@@H]([C@@H](C)C(C)O)O5)O4)OC(=O)[C@@H]4C=C(C)[C@@H](O)[C@H]5OC/C(=C\C=C\[C@@H]3C)[C@]54O)C[C@@H]2OC)O[C@@H](C)[C@@H]1O (single isomer, unassigned) [27-OH-22,23 dihydro B1a isomer A, 27-OH 22,23 dihydroavermectin B la]
I: Anthelmintic activity, Trichostrongylus sigmodontis ([2]; 0.0625 mg/kg) | Activity profile, Trichostrongulus sigmodontis ([2]; 0.0625 mg/kg) | Insecticidal activity, Lucilla larva 24 hrs (Lucilla larva; 0.5 ppm) | Insecticidal activity, Lucilla larva 24 hrs (Lucilla larva; 1 ppm)
A (85-100% effective): Activity profile, Trichostrongulus colubriformis ([1]; 0.0625 mg/kg) | Activity profile, Trichostrongulus colubriformis ([1]; 0.125 mg/kg) | Activity profile, Trichostrongulus colubriformis ([1]; 0.25 mg/kg) | Activity profile, Haemonchus Contortus (Haemonchus contortus; 0.0625 mg/kg) | Activity profile, Haemonchus Contortus (Haemonchus contortus; 0.125 mg/kg) | Activity profile, Haemonchus Contortus (Haemonchus contortus; 0.25 mg/kg) | Activity profile, Trichostrongulus sigmodontis ([2]; 0.125 mg/kg) | Activity profile, Trichostrongulus sigmodontis ([2]; 0.25 mg/kg)

CC[C@H](C)[C@H]1O[C@]2(CC[C@@H]1C)C[C@@H]1C[C@@H](C/C=C(\C)[C@@H](O[C@H]3C[C@H](OC)[C@@H](O[C@H]4C[C@H](OC)[C@@H](O)[C@H](C)O4)[C@H](C)O3)[C@@H](C)/C=C/C=C3\CO[C@@H]4[C@H](O)C(C)=C[C@@H](C(=O)O1)[C@]34O)O2 [22,23 dihydro 8 B1a, 22,23 dihydro B1a, reference compound]
A (85-100% effective): Activity profile, Trichostrongulus colubriformis ([1]; 0.0625 mg/kg) | Activity profile, Trichostrongulus colubriformis ([1]; 0.125 mg/kg) | Activity profile, Trichostrongulus colubriformis ([1]; 0.25 mg/kg) | Activity profile, Haemonchus Contortus (Haemonchus contortus; 0.0625 mg/kg) | Activity profile, Haemonchus Contortus (Haemonchus contortus; 0.125 mg/kg) | Activity profile, Haemonchus Contortus (Haemonchus contortus; 0.25 mg/kg) | Activity profile, Trichostrongulus sigmodontis ([2]; 0.125 mg/kg) | Activity profile, Trichostrongulus sigmodontis ([2]; 0.25 mg/kg)
I: Activity profile, Trichostrongulus sigmodontis ([2]; 0.0625 mg/kg)

4"-O-glucosyl, 27-OH B1a [4"-O-glucosyl, 27-OH B1a isomer B]
A (85-100% effective): Activity profile, Trichostrongulus colubriformis ([1]; 0.125 mg/kg) | Activity profile, Trichostrongulus colubriformis ([1]; 0.25 mg/kg) | Activity profile, Haemonchus Contortus (Haemonchus contortus; 0.125 mg/kg) | Activity profile, Haemonchus Contortus (Haemonchus contortus; 0.25 mg/kg) | Activity profile, Trichostrongulus sigmodontis ([2]; 0.0625 mg/kg) | Activity profile, Trichostrongulus sigmodontis ([2]; 0.125 mg/kg) | Activity profile, Trichostrongulus sigmodontis ([2]; 0.25 mg/kg)
I: Activity profile, Trichostrongulus colubriformis ([1]; 0.0625 mg/kg) | Activity profile, Haemonchus Contortus (Haemonchus contortus; 0.0625 mg/kg)

CO[C@H]1C[C@H](O[C@H]2[C@H](C)O[C@@H](O[C@@H]3/C(C)=C/C[C@@H]4C[C@@H](C[C@]5(C=C[C@H](C)[C@@H]([C@@H](C)C(C)O)O5)O4)OC(=O)[C@@H]4C=C(C)[C@@H](O)[C@H]5OC/C(=C\C=C\[C@@H]3C)[C@]54O)C[C@@H]2OC)O[C@@H](C)[C@@H]1O (single isomer, unassigned) [27-OHB1a isomer B, 27-OHB1a]
A (85-100% effective): Activity profile, Trichostrongulus colubriformis ([1]; 0.0625 mg/kg) | Activity profile, Trichostrongulus colubriformis ([1]; 0.125 mg/kg) | Activity profile, Trichostrongulus colubriformis ([1]; 0.25 mg/kg) | Activity profile, Haemonchus Contortus (Haemonchus contortus; 0.0625 mg/kg) | Activity profile, Haemonchus Contortus (Haemonchus contortus; 0.125 mg/kg) | Activity profile, Haemonchus Contortus (Haemonchus contortus; 0.25 mg/kg)
SLA (35-60% effective): Activity profile, Trichostrongulus sigmodontis ([2]; 0.25 mg/kg)

CO[C@H]1C[C@H](O[C@H]2[C@H](C)O[C@@H](O[C@@H]3/C(C)=C/C[C@@H]4C[C@@H](C[C@]5(CC[C@H](C)[C@@H]([C@@H](C)C(C)O)O5)O4)OC(=O)[C@@H]4C=C(C)[C@@H](O)[C@H]5OC/C(=C\C=C\[C@@H]3C)[C@]54O)C[C@@H]2OC)O[C@@H](C)[C@@H]1O (single isomer, unassigned) [27-OH-22,23 dihydro B1a isomer B, 27-OH 22,23 dihydroavermectin B la]
I: Activity profile, Trichostrongulus colubriformis ([1]; 0.0625 mg/kg) | Anthelmintic activity, Haemonchus contortus (Haemonchus contortus; Table 2, 0.0625 mg/kg, listed as 27-OH ivermectins Isomer B) | Anthelmintic activity, Trichostrongylus sigmodontis ([2]; 0.0625 mg/kg) | Anthelmintic activity, Trichostrongylus sigmodontis ([2]; 0.125 mg/kg, listed as 27-OH ivermectins Isomer B) | Anthelmintic activity, Trichostrongylus sigmodontis ([2]; 0.25 mg/kg, listed as 27-OH ivermectins Isomer B) | Activity profile, Trichostrongulus sigmodontis ([2]; 0.0625 mg/kg) | Activity profile, Trichostrongulus sigmodontis ([2]; 0.125 mg/kg) | Activity profile, Trichostrongulus sigmodontis ([2]; 0.25 mg/kg) | Insecticidal activity, Lucilla larva 24 hrs (Lucilla larva; 0.5 ppm) | Insecticidal activity, Lucilla larva 24 hrs (Lucilla larva; 1 ppm) | Insecticidal activity, Lucilla larva 48 hrs (Lucilla larva; 0.5 ppm) | Insecticidal activity, Lucilla larva 48 hrs (Lucilla larva; 1 ppm)
MA (60-85% effective): Activity profile, Haemonchus Contortus (Haemonchus contortus; 0.0625 mg/kg)
A (85-100% effective): Activity profile, Trichostrongulus colubriformis ([1]; 0.125 mg/kg) | Activity profile, Trichostrongulus colubriformis ([1]; 0.25 mg/kg) | Activity profile, Haemonchus Contortus (Haemonchus contortus; 0.125 mg/kg) | Activity profile, Haemonchus Contortus (Haemonchus contortus; 0.25 mg/kg)
